Source: ChEMBL document CHEMBL4049433, “Prediction of Antibiotic Interactions Using Descriptors Derived from Molecular Structure” (2017)
Values after ≈ are worked out from the molar mass of the structure shown.

System: Escherichia coli
Assay: Antibacterial activity against Escherichia coli MG1655 measured every 15 mins for 12 hrs
Assay type: functional
Conditions: K-12 substr. MG1655

Compound	MIC [µg/mL]
O=c1[nH]cc(F)c(=O)[nH]1 [FLUOROURACIL]	25 (≈ 192 µM)
CCn1cc(C(=O)O)c(=O)c2ccc(C)nc21 [NALIDIXIC ACID]	5 (≈ 21.5 µM)
N=C(N)c1ccc(OCCCCCOc2ccc(C(=N)N)cc2)cc1 [PENTAMIDINE]	100 (≈ 294 µM)
O=C1CN(/N=C/c2ccc([N+](=O)[O-])o2)C(=O)N1 [NITROFURANTOIN]	12 (≈ 50.4 µM)
NCC[C@H](O)C(=O)N[C@@H]1C[C@H](N)[C@@H](O[C@H]2O[C@H](CN)[C@@H](O)[C@H](O)[C@H]2O)[C@H](O)[C@H]1O[C@H]1O[C@H](CO)[C@@H](O)[C@H](N)[C@H]1O [AMIKACIN]	4 (≈ 6.83 µM)
CO[C@@]1(NC(=O)Cc2cccs2)C(=O)N2C(C(=O)O)=C(COC(N)=O)CS[C@@H]21 [CEFOXITIN]	4.5 (≈ 10.5 µM)
C/C(=C\C(=O)OCCCCCCCCC(=O)O)C[C@@H]1OC[C@H](C[C@@H]2O[C@H]2[C@@H](C)[C@H](C)O)[C@@H](O)[C@H]1O [MUPIROCIN]	66 (≈ 132 µM)
NC[C@H]1O[C@H](O[C@H]2[C@H](O)[C@@H](O[C@H]3O[C@H](CO)[C@@H](O)[C@H](N)[C@H]3O)[C@H](N)C[C@@H]2N)[C@H](O)[C@@H](O)[C@@H]1O [KANAMYCIN]	14 (≈ 28.9 µM)
CC(=O)O[C@H]1C[C@@]2(C)[C@@H](C[C@@H](O)[C@H]3[C@@]4(C)CC[C@@H](O)[C@@H](C)[C@@H]4CC[C@@]32C)/C1=C(\CCC=C(C)C)C(=O)O [FUSIDIC ACID]	800 (≈ 1550 µM)
CC[C@H]1OC(=O)[C@H](C)[C@@H](O[C@H]2C[C@@](C)(OC)[C@@H](O)[C@H](C)O2)[C@H](C)[C@@H](O[C@@H]2O[C@H](C)C[C@H](N(C)C)[C@H]2O)[C@](C)(OC)C[C@@H](C)C(=O)[C@H](C)[C@@H](O)[C@]1(C)O [CLARITHROMYCIN]	22 (≈ 29.4 µM)
COc1cc(Cc2cnc(N)nc2N)cc(OC)c1OC [TRIMETHOPRIM]	0.35 (≈ 1.21 µM)
CC1(C)S[C@@H]2[C@H](NC(=O)Cc3ccccc3)C(=O)N2[C@H]1C(=O)O [PENICILLIN G]	20 (≈ 59.8 µM)
NC[C@H]1O[C@H](O[C@H]2[C@H](O)[C@@H](O[C@H]3O[C@H](CO)[C@@H](O)[C@H](N)[C@H]3O)[C@H](N)C[C@@H]2N)[C@H](N)C[C@@H]1O [TOBRAMYCIN]	2.5 (≈ 5.35 µM)
CN(C)[C@@H]1C(O)=C(C(N)=O)C(=O)[C@@]2(O)C(O)=C3C(=O)c4c(O)cccc4[C@@](C)(O)[C@H]3C[C@@H]12 [TETRACYCLINE]	18 (≈ 40.5 µM)
GENTAMICIN	3
CN[C@@H]1[C@H](O)[C@H](NC)[C@H]2O[C@@]3(O)C(=O)C[C@@H](C)O[C@H]3O[C@@H]2[C@H]1O [SPECTINOMYCIN]	5.6 (≈ 16.8 µM)
CO[C@H]1/C=C/O[C@@]2(C)Oc3c(C)c(O)c4c(O)c(c(/C=N/N5CCN(C)CC5)c(O)c4c3C2=O)NC(=O)/C(C)=C\C=C\[C@H](C)[C@H](O)[C@@H](C)[C@@H](O)[C@@H](C)[C@H](OC(C)=O)[C@@H]1C [RIFAMPIN]	2.5 (≈ 3.04 µM)
O=C(N[C@H](CO)[C@H](O)c1ccc([N+](=O)[O-])cc1)C(Cl)Cl [CHLORAMPHENICOL]	5 (≈ 15.5 µM)
CC[C@H]1OC(=O)[C@H](C)[C@@H](O[C@H]2C[C@@](C)(OC)[C@@H](O)[C@H](C)O2)[C@H](C)[C@@H](O[C@@H]2O[C@H](C)C[C@H](N(C)C)[C@H]2O)[C@](C)(O)C[C@@H](C)C(=O)[C@H](C)[C@@H](O)[C@]1(C)O [ERYTHROMYCIN]	13 (≈ 17.7 µM)
CC[C@H]1OC(=O)[C@H](C)[C@@H](O[C@H]2C[C@@](C)(OC)[C@@H](O)[C@H](C)O2)[C@H](C)[C@@H](O[C@@H]2O[C@H](C)C[C@H](N(C)C)[C@H]2O)[C@](C)(O)C[C@@H](C)/C(=N\OCOCCOC)[C@H](C)[C@@H](O)[C@]1(C)O [ROXITHROMYCIN]	62 (≈ 74.1 µM)
CN[C@H](CC(C)C)C(=O)N[C@H]1C(=O)N[C@@H](CC(N)=O)C(=O)N[C@H]2C(=O)N[C@H]3C(=O)N[C@H](C(=O)N[C@H](C(=O)O)c4cc(O)cc(O)c4-c4cc3ccc4O)[C@H](O)c3ccc(c(Cl)c3)Oc3cc2cc(c3O[C@@H]2O[C@H](CO)[C@@H](O)[C@H](O)[C@H]2O[C@H]2C[C@](C)(N)[C@H](O)[C@H](C)O2)Oc2ccc(cc2Cl)[C@H]1O [VANCOMYCIN]	180 (≈ 124 µM)
Cc1onc(-c2ccccc2)c1C(=O)N[C@@H]1C(=O)N2[C@@H]1SC(C)(C)[C@@H]2C(=O)O [OXACILLIN]	190 (≈ 473 µM)
